Source: patent US11248016B2, “Glycolipids and pharmaceutical compositions thereof for use in therapy” (THE UNIVERSITY OF NOTTINGHAM, priority 2014, dated 2022)

Assays:
[1] = system: SKOV3 ovarian cancer cells; test: Cell proliferation, SKOV3; assay type: cell-based; conditions: 96 hours, Cisplatin alone; FIG. 4f
Procedure: Growth of SKOV3 cell lines were slowed by the treatment with a compound of Formula II at higher doses. Experiment represents 6 biological repetitions, Error=S.E.M.
Cisplatin™ resistant SKOV-3 ovarian cancer cells were sensitised to treatment with a compound of Formula II in combination with 2.5 μM Cisplatin™ (p=0.003) (right hand bar in the figure), no effect is observed from treatment with equivalent levels of a compound of Formula II alone (left hand bar in the figure) or Cisplatin™ alone.
(§1) Prior to treatment cells were cultured to an appropriate confluency in 96 well tissue culture plates (Fisher). Cells remained either supplemented with fresh media or treated with fresh media containing active or an equivalent volume of DMSO (vehicle control). Where used, Cisplatin™ was diluted to a stock concentration in Dimethylformamide (DMF), then handled as per the manufacturer's instructions. To determine relative cell viability, reagents WST-1 (Roche) or MTT (Sigma) were used as per the manufacturer's instructions and absorbance at 450 nm measured using a Victor plate reader (Perkin Elmer).

[2] = system: primary canine histocytic sarcoma tumour cells; test: Primary canine tumour cell experiments; assay type: cell-based, dog; conditions: single dose Cisplatin (10 μM), 6 days
Procedure: Cells were cultured for 6 days with a single dose treatment of Cisplatin™ (10 μM) or a combination of Cisplatin™ plus a compound of Formula II (active). Images were taken after 6 days treatment and are representative of three independently treated wells. Each image (40× magnification) represents the majority of the well area and is of an equivalent area in each photograph.
Known inhibitors of protein synthesis such as hippuristanol have proven potent anti-cancer properties when used in combination with chemotherapeutic agents such as Cisplatin™ or Doxorubicin™. However hippuristanol is naturally found in coral to is scarce and expensive to obtain, furthermore it is very difficult and expensive to synthesise. […] In particular this combination has a potent effect at slowing proliferation or killing cancer cells. Slow growing and difficult to treat tumour cell types such as A549 lung cancer cells, SH-SY5Y neuroblastoma or SKOV-3 cancer cells are all sensitised by exposure to Formula II to very low doses of Cisplatin™ (FIGS. 4d, 4e, 4f and 7)—a complete kill can be achieved in both A549 and SH-SY5Y cells after a single dose treatment with g quantities of a compound of Formula II in combination with 1 μM or 2.5 μM treatments of Cisplatin™. […]

[3] = system: A549 lung carcinoma cells; test: Cell proliferation, A549 (WST-1 / MTT); assay type: cell-based; conditions: for sensitisation of A549 cells to low dose cisplatin: range of doses with range of doses of Cisplatin, FIG. 14; for sensitisation of A549 cells to low dose cisplatin / growth of A549 cells: 96 hrs; for growth of A549 cells: range of doses, dose dependant manner, FIG. 13
Procedure: Cisplatin™ resistant A549 lung cancer cells were sensitised to treatment with a compound of Formula II in combination with 1 μM Cisplatin™—a complete kill is achieved at higher doses of a compound of Formula II.
Cells were treated with a range of doses of active for either 48 or 96 hrs. Each data point is representaive of at least 4 biological repetitions.
Cells were treated with either 2 μM Cisplatin™ alone, c. 1 μg active alone or c. 1 μg active in combination with 2 μM Cisplatin™. A WST-1 cell proliferation assay was performed 96 hrs after treatment. Experiment represents 4 independent biological repetitions.
A WST-1 cell proliferation assay was performed 72 hrs after treatment. Experiment represents 4 independent biological repetitions.
Cells were treated with either 2 μM or 10 μM Cisplatin™ alone, or 10 μg synthetic molecule Formula II in combination with 2 μM Cisplatin™. A WST-1 cell proliferation assay was performed 72 hrs after treatment. Experiment represents 4 independent biological repetitions. A 5-fold increase in the efficacy of Cisplatin™ is observed when treated in combination with the synthetic Formula II.
Cells were treated with either 2 μM, 5 μM or 10 μM Cisplatin™ alone, 50 μg synthetic acetyl derivative molecule or 30 μg in combination with 2 μM Cisplatin™. A WST-1 cell proliferation assay was performed 72 hrs after treatment. Experiment represents four independent biological repetitions. No effect was detected after treatment with 50 μg synthetic acetyl derivative, however an 8-fold increase in the efficacy of Cisplatin™ is observed when treated in combination with 30 μg synthetic acetyl derivative and […] Cisplatin™.
FIG. 11—Natural molecule plus cisplatin compared to Hippuristanol plus cisplatin. […] The ratio between anti-proliferative activity to chemo sensitizing activity is also equivalent.
FIG. 13—Dose curves of compounds 46, 99 and 123. […] Cells were treated with a range of doses of active for 96 hrs. Each data point is representative of at least 4 biological repetitions and error=s.e.m).
FIG. 14—Cisplatin™ combination experiments—Compounds 46, 99 and 123. […] Cells were treated with a range of doses of active in combination with a range of doses of Cisplatin™ for 96 hrs. Each data point is representative of at least 4 biological repetitions and error=s.e.m).
as §1

NLGN1 5′UTR = test: NLGN translation reporter assay, neuroligin 1; assay type: cell-based, human; conditions: FIG. 5: 1 μM Hippuristanol, 1.3 μM compound; FIG. 10: compound 46
Procedure: (§2) The mechanism of action and level of activity of Formula II are consistent with and comparative to a proven translational inhibitor extracted from a rare coral species (Hippuristanol—a proven inhibitor of eIf4A). In this experiment 1 μM of Hippuristanol and 1.3 μM of Formula I was used
(§3) FIG. 10—Compound 46, NLGN Translation reporter assay.
Direct evidence is provided that inhibiting eIF4A represents a new route to treating ASD based on the data presented by Gkogkas et al. Nature 2013, 493:371-7.
Treatment with the compound of Formula II (and compound 46) (FIG. 5 and FIG. 10) selectively decrease the firefly luciferase signal from a reporter construct containing the NLGN1 5′UTR upstream of a firefly luciferase gene. The translation of luciferase reporters downstream of the NLGN1 5′UTR has been proven to be dependent on the activity of the translation initiation complex eIF4F (Gkogkas et al Nature 2013, 493:371-7)—a complex containing the helicase eIF4A. Equivalent treatment had little effect on the signal generated from either a co-transfected renilla luciferase reporter control or cells transfected with an equivalent construct containing the NLGN2 5′UTR upstream of a firefly luciferase gene (FIG. 5 and FIG. 10).
Experiments conducted using Firefly luciferase reporter plasmids containing the 5′ untranslated regions (UTRs) of the genes amyloid precursor protein (APP), thioredoxin (TXN) were conducted with reagents and materials described by Bottley et al, 2010. Experiments conducted using Firefly luciferase reporter plasmids containing the 5′ UTRs of the genes EGFR, BACE1 and Actin were conducted with reagents and materials described by Webb, 2012 (http://etheses.nottingham.ac.uk/2724/). […]
(§4) Cells were transfected using FuGene 6 (Roche) following the manufacturer's instructions. The activities of firefly and renilla luciferase in lysates prepared from transfected cells were measured using a commercially available Luciferase reporter assay system (Promega) and light emission was measured over a 10 sec interval using a TECAN luminometer. […]

NLGN2 5′UTR = test: NLGN translation reporter assay, neuroligin 2; assay type: cell-based, human; conditions: equivalent treatment; FIG. 5 and FIG. 10
Procedure: as §2, §3
Treatment with the compound of Formula II (and compound 46) (FIG. 5 and FIG. 10) selectively decrease the firefly luciferase signal from a reporter construct containing the NLGN1 5′UTR upstream of a firefly luciferase gene. The translation of luciferase reporters downstream of the NLGN1 5′UTR has been proven to be dependent on the activity of the translation initiation complex eIF4F (Gkogkas et al Nature 2013, 493:371-7)—a complex containing the helicase eIF4A. […]
as §4

[4] = system: firefly luciferase translation reporter; test: Firefly luciferase translation reporter assay; assay type: cell-based, human; conditions: Hippuristanol (1 μM) alone, 4 hrs; FIG. 3c
Description: Graphs represent 4 biological repetitions per treatment—2 independent treatments of a compound of Formula II.
Graphs represent 4 biological repetitions per treatment. […] No difference is observed between Hippuristanol and Hippuristanol plus a compound of Formula II.
The degree of translation inhibition is shown to be equivalent to that of a known inhibitor of translation, hippuristanol (FIGS. 3b and 5). Comparative structured 5′UTR firefly luciferase reporter experiments conducted using either hippuristanol or a compound of Formula II show the inhibition of reporter levels is equivalent.
Cells were transfected using FuGene 6 (Roche) following the manufacturer's instructions. The activities of firefly and renilla luciferase in lysates prepared from transfected cells were measured using a commercially available Luciferase reporter assay system (Promega) and light emission was measured over a 10 sec interval using a TECAN luminometer. For each experiment described, data was obtained from a minimum of at least 3 biological repetitions per treatment.

three Gag isoforms = conditions: increasing amounts, dose-response; cited from earlier work
HCMV = conditions: cited from earlier work

SMILES: N.N.[Cl][Pt][Cl] [Cisplatin, cis-diamminedichloroplatinum(II), reference compound]
- effect on SKOV-3 cells, Cisplatin alone [1]: no effect
- canine tumour cells after Cisplatin only [2]: many cancer cells remain

SMILES: CC/C=C\C/C=C\C/C=C\CCCCCCCC(=O)OCC(COC(=O)CCCCCCC/C=C\C/C=C\C/C=C\CC)CO[C@@H]1O[C@H](CO)[C@H](O)[C@H](O)[C@H]1O [Compound 46]
- sensitisation of A549 cells to low dose cisplatin [3]: sensitizes
- growth of A549 cells [3]: inhibits the growth
- translation of NLGN1 5′UTR firefly luciferase reporter relative to neuroligin 2 (NLGN1 5′UTR): selectively inhibits the translation
- signal of NLGN2 5′UTR firefly luciferase reporter (NLGN2 5′UTR): little effect

SMILES: CC/C=C\C/C=C\C/C=C\CCCCCCCC(=O)OCC(COC(=O)CCCCCCC/C=C\C/C=C\C/C=C\CC)CO[C@@H]1O[C@H](CO)[C@@H](O)[C@H](O)[C@H]1O [Compound 99]
- sensitisation of A549 cells to low dose cisplatin [3]: sensitizes
- growth of A549 cells [3]: inhibits the growth

SMILES: CC/C=C\C/C=C\C/C=C\CCCCCCCC(=O)OC[C@H](CO[C@H]1O[C@H](CO)[C@@H](O)[C@H](O)[C@H]1O)OC(=O)CCCCCCC/C=C\C/C=C\C/C=C\CC [Compound 123]
- sensitisation of A549 cells to low dose cisplatin [3]: sensitizes
- growth of A549 cells [3]: inhibits the growth

SMILES: C[C@H]1C[C@@]2(O[C@H]3C[C@H]4[C@@H]5CC[C@H]6C[C@H](O)CC[C@]6(C)[C@H]5[C@@H](O)C[C@]4(C)[C@H]3[C@@]2(C)O)OC1(C)C [Hippuristanol, reference compound]
- inhibition of translation reporter [4]: significant inhibition
- anti-proliferative activity on A549 cells ([3]; alone, FIG. 11): anti-proliferative
- translation of NLGN1 5′UTR firefly luciferase reporter relative to neuroligin 2 (NLGN1 5′UTR): selective inhibition
- translation of the three Gag isoforms (three Gag isoforms): inhibits the translation of the three Gag isoforms

SMILES: CC(/C=C/C(C)=C/[C@@H]1Cc2nc(cs2)[C@@H](C)C[C@@H](N)CC(=O)O[C@@H](C)C/C(C)=C/C=C\C(=O)O1)=C\CN(C)C [Pateamine A]
- replication of HCMV (HCMV): inhibits the replication of HCMV

SMILES: CC/C=C\C/C=C\C/C=C\CCCCCCCC(=O)OC[C@H](COC1OC(COC(C)=O)C(OC(C)=O)C(OC(C)=O)C1OC(C)=O)OC(=O)CCCCCCC/C=C\C/C=C\C/C=C\CC (some centres unmarked) [acetyl derivative of Formula II]
- increase in the efficacy of Cisplatin ([3]; 30 μg plus 2 μM Cisplatin, WST-1, 72 hrs, FIG. 9c): 8 fold
- effect on A549 cells, compound alone ([3]; 50 μg alone, WST-1, 72 hrs, FIG. 9c): No effect
